Assay results reported in US4342780A, “Method of depleting endogenous monoamines” (Merrell-Toraude et Cie, priority 1981, dated 1982).

Assays:
AADC = assay: Ex vivo AADC activity in organs of mice after repeated i.p. doses (Table II); design: species or system mice (Swiss Albino); conditions: three days, 12 h after 6th dose, vs control
Method: The test animals (e.g. mice or rats) are given the test compound in a suitable vehicle, either orally or by injection, each day over the period of time desired. The animals are kept on a constant time cycle, and body weights are measured daily. The animals are sacrificed by decapitation 12 to 24 hours after receiving the last dose of the test compound. Control animals receive the vehicle alone.
Immediately after death, the organs (brain, heart, and kidney) are removed and homogenized either in 50 ml phosphate buffer pH 6.8 for AADC determination or in ice-cold 0.4 M HClO4 containing 0.05% (w/v) EDTA and 0.1% (w/v) sodium bisulfite for catecholamine determination. AADC activity is determined by the ^14 CO2 trapping method of J. Christenson, supra (see Example 14) using DL-[1-^14 C]-dopa as the substrate. Catecholamines are determined by centrifuging the homogenate, adding the supernatant to alumina buffered to pH 8.0-8.4 to adsorb the catecholamines, re-extracting the catecholamines from the alumina with 0.2 M HClO4 and determining the catecholamines in the extracts using known procedures, such as by reversed-phase ion-pair HPLC with electrochemical detection.
Table II, shown below, sets forth the results obtained by testing particular compounds of Formula I in the above-described procedure in mice (Swiss Albino) after i.p. administration of the compound twice daily for three days: […]

[1] = test system: dopamine, noradrenalin and 5-hydroxytryptamine content; assay: Effect on catecholamines and 5-HT in brain regions of the rat 24 hours post-dose (Table IV); format: in vivo, Male Sprague-Dawley rats; conditions: 100 mg/kg i.p., ± S.E.M.
Method: The following example illustrates the effect of 2-amino-2-fluoromethyl-3-(3,4-dihydroxyphenyl)propionic acid on catecholamines and 5-HT in the brain.
Male Sprague-Dawley rats (200-300 g) from Charles River, France are housed in groups having free access to food and water. The animals are maintained on a 12 hour light-dark cycle at an ambient temperature of 23° C. The compound 2-amino-2-fluoromethyl-3-(3,4-dihydroxyphenyl)propionic acid is dissolved in 0.9% saline solution and administered as a single dose of 100 mg/kg, i.p. The animals are sacrificed 24 hours later and the brain is dissected on a chilled glass plate into six regions: the striatum, hypothalmus, olfactory tubercles, frontal cortex, cerebellum and brain stem. The tissues are weighed and homogenized in 600 microliters of ice-cold 0.4 Normal HClO4 reagent. The homogenate is centrifuged and dopamine, noradrenalin and 5-hydroxytryptamine are determined by reversed-phase ion-pair high pressure liquid chromatography using electrochemical detection.

NC(CF)(Cc1ccc(O)c(O)c1)C(=O)O (stereo not shown) [3,4-diOH-phenyl, 2-Amino-2-fluoromethyl-3-(3,4-dihydroxyphenyl)propionic acid]
% CHANGE AADC Brain (AADC; 10 mg/kg i.p. twice daily): -86%
% CHANGE AADC Kidney (AADC; 10 mg/kg i.p. twice daily): -95%
% CHANGE AADC Brain (AADC; 100 mg/kg i.p. twice daily): -99%
% CHANGE AADC Kidney (AADC; 100 mg/kg i.p. twice daily): -99%
5-Hydroxytriptamine, Cerebellum ([1]; control 30 ± 3, p < 0.01): 11 ± 3 ng/g
Dopamine, Brain Stem ([1]; control 37 ± 9): 13 ± 4 ng/g
Noradrenaline, Striatum ([1]; control 47 ± 13): 46 ± 24 ng/g
Noradrenaline, Cerebellum ([1]; control 137 ± 1, p < 0.001): 17 ± 3 ng/g
Noradrenaline, Olfactory Tubercles ([1]; control 360 ± 32, p < 0.01): 126 ± 29 ng/g
5-Hydroxytriptamine, Frontal Cortex ([1]; control 365 ± 23, p < 0.001): 19 ± 7 ng/g
Dopamine, Hypothalamus ([1]; control 399 ± 23): 280 ± 69 ng/g
Noradrenaline, Brain Stem ([1]; control 439 ± 47, p < 0.01): 143 ± 9 ng/g
5-Hydroxytriptamine, Striatum ([1]; control 591 ± 47, p < 0.001): 50 ± 16 ng/g
5-Hydroxytriptamine, Brain Stem ([1]; control 620 ± 35, p < 0.01): 136 ± 50 ng/g
5-Hydroxytriptamine, Olfactory Tubercles ([1]; control 699 ± 72, p < 0.01): 87 ± 31 ng/g
5-Hydroxytriptamine, Hypothalamus ([1]; control 1162 ± 306, p < 0.05): 199 ± 44 ng/g
Noradrenaline, Hypothalamus ([1]; control 1419 ± 107, p < 0.01): 631 ± 37 ng/g
Dopamine, Olfactory Tubercles ([1]; control 1954 ± 62, p < 0.001): 403 ± 44 ng/g
Dopamine, Striatum ([1]; control 7342 ± 357, p < 0.001): 1466 ± 156 ng/g
